According to patent US10869848B2 (priority 2014, dated 2020):

Legend:
[1] = Visual solubility of carmustine in alcoholic solvents; format: physicochemical
[2] = Stability of carmustine solution in TBA or dehydrated ethanol; format: physicochemical; settings: storage at room temperature
[3] = alcohol such as tertiary butanol; cited from earlier work

O=NN(CCCl)C(=O)NCCCl [Carmustine, 1,3-bis (2-chloroethyl)-1-nitrosourea]
precipitation on storage, TBA solution ([1]; TBA solution stored at about 2 to about 8° C.): Neither of the solutions showed any sign of precipitation
solubility in TBA ([1]; TBA, room temperature, visually determined): > 1 g per mL
precipitation on storage, dehydrated ethanol solution ([1]; dehydrated ethanol solution stored at about 2 to about 8° C.): Neither of the solutions showed any sign of precipitation
solubility in dehydrated ethanol ([1]; dehydrated ethanol, room temperature, visually determined): > 1 g per mL
time solution is stable, TBA ([2]; solution in TBA): at least 24 hrs
time solution is stable, dehydrated ethanol ([2]; solution in dehydrated ethanol): at least 24 hrs
solubility in alcohol, dichloromethane and ether [3]: very soluble
